Source: patent US8357379B2, “High concentration baclofen preparations” (Board of Regents, The University of Texas System, priority 2004, dated 2013)

How the values were obtained:
[1] = Time to complete dissolution during preparation of high concentration solutions; type: physicochemical
Method: Solubilization of Baclofen by Heat and Sonication. Appropriate amounts of baclofen were weighed and added to appropriate volumes of normal saline in order to produce mixtures containing 4, 5, 6, 8 or 10 mg/mL baclofen. All samples had undissolved baclofen powder present immediately after mixing. Samples having concentrations of 4, 5 or 6 mg/mL of baclofen were heated to 70° C. Samples having concentrations of 8 and 10 mg/mL of baclofen were heated to 95° C. Intense agitation was applied to all of the samples by sonicating the samples during the heating step. Heating and sonication were continued until all of the powder dissolved, and a clear solution with no residual particulate matter resulted. For the 4, 5, and 6 mg/mL samples, this occurred in about 20 to 30 minutes. […] Again, the solutions were clear with no residual particulate matter.
Solubilization of Baclofen by Heat and High-Speed Stirring. Appropriate amounts of baclofen were weighed and added to appropriate volumes of normal saline in order to produce mixtures containing 4, 5, 6, 8 or 10 mg/mL baclofen. All samples had undissolved baclofen powder present immediately after mixing. Samples having concentrations of 4, 5 or 6 mg/mL of baclofen were heated to 70° C. Samples having concentrations of 8 and 10 mg/mL of baclofen were heated to 95° C. Intense agitation was applied to all of the samples by high-speed stirring. A high-speed stir bar was placed in each of the containers for each of the baclofen concentrations was stirred using a Thermolyne stirrer at a speed of about 600 rpm while the solutions were heated. This was designed to simulate the use of a high-speed high shear mixer in a larger industrial setting. Again the heating at 70° C. for the 4, 5, and 6 mg/mL concentrations and to 95° C. for the 8 and 10 mg/mL concentrations and high-speed stirring were continued until all of the powder had dissolved and a clear solution with no residual particulate matter resulted. This occurred within about 20 minutes with all samples.
Acidification with Back Titration. Baclofen concentrations of 4, 5, 6, 8, and 10 mg/mL were prepared by dissolving appropriate amounts of baclofen powder in 0.1 N hydrochloric acid. […] The solutions were then back titrated with 0.1 N sodium hydroxide to reach a pH about 5.0 to 5.1, which is within the current product pH range for commercial baclofen solutions, and brought to volume with 0.9% sodium chloride. After complete dissolution had occurred, the solutions were filtered through 0.22-micron sterilizing filters into sterile empty vials. The vials were stored at room temperature, under refrigeration, and at 37° C. to simulate “in use” conditions in an implanted pump.
Alkalinization with Back Titration. Baclofen concentrations of 4, 5, 6, 8, and 10 mg/mL were prepared by dissolving appropriate amounts of baclofen powder in 0.1 N sodium hydroxide. […] The solutions were then back titrated with 0.1 N hydrochloric acid to reach a pH about 6.9 to 7.0, which is within the current product range, and brought to volume with 0.9% sodium chloride. After complete dissolution had occurred, the solutions were filtered through 0.22-micron sterilizing filters into sterile empty vials. The vials were stored at room temperature, under refrigeration, and at 37° C. to simulate “in use” conditions in an implanted pump.

[2] = aqueous solution, room temperature, neutral pH (pH 6 to 7); calculated (Ahuja, 1985); cited from earlier work
[3] = Physical stability evaluation (visual inspection, Tyndall beam, turbidity, particle counting) of stored baclofen solutions; type: physicochemical; conditions: for Physical Stability (yes/no) / visual inspection at approximately 16 months: heat and sonication; for physical stability at twelve months: 12 months
[4] = intrathecal injection at effective CSF concentrations vs oral administration; cited from earlier work
[5] = 20° C.; cited from earlier work
[6] = Physical stability evaluation (visual inspection, Tyndall beam, turbidity, particle counting) of stored baclofen solutions; type: physicochemical; conditions: for time remained clear and free of unacceptable microparticulates: room temperature or 37° C.
Method: Methods of Sample Preparation. All manipulations are conducted in a Class 100 environment in a biological safety cabinet. Each test solution is prepared as a pooled sample and then subdivided by (1) drawing 20 mL of the solution into 30-mL Becton-Dickinson syringes having Braun Luer lock “Red Cap” syringe tip seals and (2) sealing the Luer tip with a Red Cap Luer tip seal and (3) filling 20 mL of the test solution into 30-mL sterile empty glass vials. Separate sample syringes and sample vials are prepared for each drug concentration at each storage temperature. Separate syringes and vials are prepared for analysis of the drug content. Further syringes and vials are used to evaluate the physical stability of the solutions.
Methods of Sampling and Analysis. Each pooled solution is analyzed and evaluated immediately after preparation. This serves as the initial time point evaluation for the test solution. The solution is then packaged into the syringes and vials as noted under Sample Preparation.
The test solutions in vials and syringes are thoroughly mixed prior to sampling. A 1-mL sample of each test solution from three test syringes and three test vials is collected and chemically analyzed. The sample aliquots are removed from each container after 1, 3, 7, 14, 21, 30 and 60 days of storage at 4° C., 23° C., and 37° C. Triplicate HPLC determinations are performed at each time point if needed to determine the maximum stability of baclofen. The contents of the remaining containers are visually inspected at each assay time point and 6-mL samples are collected and fully evaluated for physical stability as indicated under Physical Stability Evaluation above after 1, 3, 7, 14, 21, 30 and 60 days.
After complete dissolution of the samples had occurred, the solutions were allowed to cool to room temperature and several separate aliquots of each sample were filtered through 0.22-micron sterilizing filters into sterile empty vials. Vials containing samples of each solution were stored under one of three test conditions: vials were stored at room temperature or under refrigeration (to simulate normal storage conditions), or at 37° C. (to simulate “in use” conditions in an implanted pump).
Physical Stability Evaluation. The samples are also evaluated for changes in turbidity and particulate formation. In addition to visual inspection in normal diffuse fluorescent room light and using a high-intensity monodirectional light source (Tyndall beam) against a dark background, turbidity is measured using a Hach Company model 2100AN color-correcting turbidimeter, and particle sizing/counting is performed using a light-obscuration particle sizer and counter (HIAC-Royco Model 9703 particle sizer/counter).

Compound: NCC(CC(=O)O)c1ccc(Cl)cc1 (stereo not drawn) [Baclofen, 4-amino-3-(p-chlorophenyl) butyric acid]
- time until all powder dissolved (clear solution) ([1]; 4, 5, 6 mg/mL at 70° C. and 8, 10 mg/mL at 95° C., normal saline, high-speed stirring about 600 rpm (Example 2)): ≤ 20 min
- time until powder dissolved (clear solution) ([1]; 4, 5, 6, 8, and 10 mg/mL in 0.1 N hydrochloric acid (Example 3)): within a few minutes
- time until powder dissolved (clear solution) ([1]; 4, 5, 6, 8, and 10 mg/mL in 0.1 N sodium hydroxide (Example 4)): within a few minutes
- time until all powder dissolved (clear solution) ([1]; 4, 5, and 6 mg/mL in normal saline, 70° C., sonication (Example 1)): 20 to 30 min
- time until all powder dissolved (clear solution) ([1]; 8 and 10 mg/mL in normal saline, 95° C., sonication (Example 1)): about 20 minutes
- time before there is 10% decomposition of the dissolved baclofen [2]: 10 years
- Physical Stability (yes/no) ([3]; 3 mg/ml, room temperature, test period 24 months): yes
- Physical Stability (yes/no) ([3]; 3.5 mg/ml, room temperature, test period 24 months): yes
- time remained in solution ([3]; 4 mg/mL, Examples 1 and 2, refrigerated at 4° C. (maximum duration tested)): at least 60 days
- time remained in solution, clear and free of visible particulates and microparticulate precipitation ([3]; 4 mg/mL, Examples 1 and 2, room temperature of 23° C.): at least one
- time stayed in solution, clear and free of visible particulates and unacceptable microparticulates ([3]; 4 mg/mL, heat and sonication (Example 1) or heat and high speed stirring (Example 2), room temperature): over 12 months
- Physical Stability (yes/no) ([3]; 4 mg/ml, room temperature, test period 12 months): yes
- Physical Stability (yes/no) ([3]; 4 mg/ml, room temperature, test period 24 months): yes
- time after which a precipitate developed ([3]; 5 mg/mL, refrigeration): 14 days
- Physical Stability (yes/no) ([3]; 5 mg/ml, room temperature, test period 12 months): yes
- time remained clear and free of unacceptable microparticulates ([3]; 6 mg/mL, all four methods (Examples 1-4), room temperature or 37° C.): at least 60 days
- physical stability at twelve months ([3]; 6.0 mg/mL, heat and sonication (Example 1), room temperature): no visible particulates to the unaided eye, but did contain trace amounts of solid material
- visual inspection at approximately 16 months ([3]; 6.0 mg/mL, room temperature): no change in its condition
- Physical Stability (yes/no) ([3]; 6 mg/ml, room temperature, test period 12 months, no visible particulates to the unaided eye, trace microparticulates in a few vials): yes^b
- time remained in solution ([3]; 8.0 mg/mL, heat and sonication (Example 1), room temperature): at least 30 days
- time remained clear and free of unacceptable microparticulates before trace particulate precipitation ([3]; 8 mg/mL, heating and agitation (Examples 1 and 2), room temperature or 37° C.): 14 days
- physical stability at 24 months ([3]; 3.0, 3.5 and 4.0 mg/mL, heat and sonication (Example 1), room temperature, 24 months, four methods of Example 11): physically stable by all four methods
- physical stability at twelve months ([3]; 4.0 and 5.0 mg/mL, heat and sonication (Example 1), room temperature): remained clear and no particulates were detected
- visual inspection at approximately 16 months ([3]; 4.0 and 5.0 mg/mL, room temperature): no change in the solutions
- plasma concentrations with intrathecal injection relative to oral administration [4]: 100 times less
- pKa1 [5]: 3.8±0.1
- pKa2 [5]: 9.62±0.1
- time stayed in solution, clear and free of visible particulates and unacceptable microparticulates ([6]; 4 mg/mL, Examples 1 and 2, 37° C. (maximum duration tested)): at least one
- time remained clear and free of unacceptable microparticulates ([6]; 4 mg/mL, prepared by pH adjustment (Examples 3 and 4)): at least 60 days
- time remained clear and free of unacceptable microparticulates ([6]; 5 mg/mL, all four methods (Examples 1-4)): at least 60 days
- time after which a precipitate developed ([6]; 6 mg/mL, refrigeration): 7 days
- time remained in solution clear and free of unacceptable microparticulates ([6]; 8 mg/mL, acidification and back titration to pH 5 (Example 3), room temperature): at least 30 days
- time remains in solution clear and free of unacceptable microparticulates ([6]; 8 mg/mL, alkalinization and back titration (Example 4), room temperature): at least 30 days
